The test system of assay [1] is Aspergillus flavus CCM 8363. Briefly: Antifungal microdilution broth, A. flavus. In kind it is cell-based. Conditions: CCM8363, 48 h, read-out: MIC against Aspergillus flavus.
In assay [2] the test system is C. tropicalis CCM 8264 (ATCC 750). Briefly: Antifungal microdilution broth, C. tropicalis. The class given is cell-based. Conditions: Candida tropicalis, 48 h; read-out: MIC against C. tropicalis.
Assay [3] deals with Aspergillus fumigatus ATCC 204305. The experiment in a line: Antifungal microdilution broth, A. fumigatus. The class given is cell-based. Conditions: ATCC204305, 48 h, read-out: MIC against Aspergillus fumigatus.
The subject of assay [4] is Lichtheimia corymbifera CCM 8077. Briefly: Antifungal microdilution broth, L. corymbifera. The class given is cell-based. Conditions: CCM8077, 48 h, read-out: MIC against Lichtheimia corymbifera. On the technique in general: Broth dilution looks for growth in wells or tubes with falling amounts of substance.
Assay [5] concerns C. krusei CCM 8271 (ATCC 6258). The experiment in a line: Antifungal microdilution broth, C. krusei. In kind it is cell-based, Candida krusei. Conditions: Pichia kudriavzevii, 48 h; read-out: MIC against C. krusei.
Assay [6] relates to Candida albicans CCM 8320 (ATCC 24433). The experiment in a line: Antifungal microdilution broth, C. albicans. In kind it is cell-based. Conditions: 48 h, read-out: MIC against Candida albicans.
For assay [7], the system named is C. parapsilosis CCM 8260 (ATCC 22019). Briefly: Antifungal microdilution broth, C. parapsilosis. Conditions: Lodderomyces parapsilosis, 48 h; read-out: MIC against C. parapsilosis. The class given is cell-based, Candida parapsilosis.
The test system of assay [8] is Trichophyton interdigitale CCM 8377 (ATCC 9533). The experiment in a line: Antifungal microdilution broth, T. interdigitale. Conditions: 72 h, read-out: MIC against Trichophyton interdigitale. In kind it is cell-based.
The test system of assay [9] is M. avium ssp. avium CNCTC My 80/72 (ATCC 15769). Briefly: Antimycobacterial microplate alamar blue assay, M. avium. The class given is cell-based, Mycobacterium avium. Conditions: Mycobacterium avium. On the technique in general: Alamar Blue is a resazurin reagent that responds to reducing activity.
The subject of assay [10] is four Gram-positive and four Gram-negative bacterial strains. The experiment in a line: Antibacterial screening, microdilution broth, panel of eight strains. The class given is cell-based. Conditions: concentration scale 500–0.97 μM.
The subject of assay [11] is M. kansasii CNCTC My 235/80 (ATCC 12478). Briefly: Antimycobacterial microplate alamar blue assay, M. kansasii. In kind it is cell-based, Mycobacterium kansasii. Conditions: Mycobacterium kansasii.
Assay [12] concerns Mycobacterium tuberculosis H37Rv CNCTC My 331/88 (ATCC 27294). Briefly: Antimycobacterial microplate alamar blue assay, M. tuberculosis H37Rv. Conditions: Mycobacterium tuberculosis. The class given is cell-based.
Assay [13] relates to Mycobacterium smegmatis DSM 43465 (ATCC 607). Briefly: Antimycobacterial microdilution assay, M. smegmatis. In kind it is cell-based. Conditions: Mycolicibacterium smegmatis, 48 h, Middlebrook 7H9 broth, resazurin after 48 hours; read-out: Antimycobacterial Activity MIC M. smeg.
The test system of assay [14] is Mycobacterium aurum DSM 43999 (ATCC 23366). Briefly: Antimycobacterial microdilution assay, M. aurum. In kind it is cell-based. Conditions: Mycolicibacterium aurum, 72 h, Middlebrook 7H9 broth, resazurin after 72 hours.

These results are taken from article PMC6982817, “Substituted N-(Pyrazin-2-yl)benzenesulfonamides; Synthesis, Anti-Infective Evaluation, Cytotoxicity, and In Silico Studies” (Molecules, 2019).

In brackets after ≈: the same amount, converted by molar mass. Read-outs that look alike come from different tables or passages of the source.

The MIC is the least concentration at which growth counts as inhibited. On to `C[C@@H](c1ncncc1F)[C@](O)(Cn1cncn1)c1ccc(F)cc1F` [voriconazole], for which the MIC in assay [1] was over 16 µg/mL; in assay [2] it was over 16 µg/mL; in [3] it was 1 µg/mL (≈ 2.86 µM); in assay [4], over 16 µg/mL; in assay [5], 0.5 µg/mL (≈ 1.43 µM); in [6], over 16 µg/mL. Moreover, the MIC in assay [7] is 8 µg/mL (≈ 22.9 µM); in assay [8], over 16 µg/mL.
On to `Cc1cc(NS(=O)(=O)c2ccc(N)cc2)no1` [Sulfamethoxazole, 4-amino-N-(5-methylisoxazol-3-yl)benzenesulfonamide, reference compound], for which the MIC turned out to be 49 µM in [9] (ATCC15769, molar value printed beside μg/mL in text, read-out: MIC M. avium); 12.5 µg/mL in [9] (ATCC15769, pH 6.6, Middlebrook 7H9 broth pH 6.6, alamar blue, read-out: Antimycobacterial Activity MIC M. avium); 12 µM in assay [11] (ATCC12478, molar value printed beside μg/mL in text, read-out: MIC M. kansasii); 3.13 µg/mL in [11] (ATCC12478, pH 6.6, Middlebrook 7H9 broth pH 6.6, alamar blue, read-out: Antimycobacterial Activity MIC M. kansasii); 3.13 µg/mL in assay [12] (pH 6.6, Middlebrook 7H9 broth pH 6.6, alamar blue, read-out: Antimycobacterial Activity MIC Mtb H37Rv); 12 µM in assay [12] (read-out: MIC Mtb H37Rv). Moreover, the MIC in [13] is 250 µg/mL (≈ 987 µM); in assay [14], at least 500 µg/mL. Besides, in assay [10], the “antibacterial activity MIC” value is “not active against any of the tested bacterial strains”.
